Results from patent publication US6596687B1, “Cell adhesion inhibitors” (Biogen, Inc., priority 1995, dated 2003).
Numbered stars: 1 amine (or outer) side, 2 acyl side, 3 side chain; on linkers, the order of the positions; unused ones are H or OH. Peptide text beside a SMILES is read from it. * marks the point of attachment. Suc = O=C(CCC(=O)[*:2])[*:1]; NHPh = c1ccc(N*)cc1

These compounds were tested against T1, VLA4 (Homo sapiens, UniProt P05556+P13612) (assay: Inhibition of VLA4-dependent adhesion of Ramos cells to BSA-CS1). Details: not given.
T1 construct: endogenous in cells; host or cells: Ramos cells
Format: cell-based
Source text: For example, the cell adhesion inhibitory activity of these compounds may be measured by determining the concentration of inhibitor required to block the binding of VLA-4-expressing cells to fibronectin- or CS1-coated plates. In this assay microtiter wells are coated with either fibronectin (containing the CS1-sequence) or CS-1. If CS-1 is used, it must be conjugated to a carrier protein, such as bovine serum albumin, in order to bind to the wells. Once the wells are coated, varying concentrations of the test compound are then added together with appropriately labelled, VLA-4-expressing cells. Alternatively, the test compound may be added first and allowed to incubate with the coated wells prior to the addition of the cells. The cells are allowed to incubate in the wells for at least 30 minutes. Following incubation, the wells are emptied and washed. Inhibition of binding is measured by quantitating the fluorescence or radioactivity bound to the plate for each of the various concentrations of test compound, as well as for controls containing no test compound.
VLA-4-expressing cells that may be utilized in this assay include Ramos cells, Jurkat cells, A375 melanoma cells, as well as human peripheral blood lymophocytes (PBLs). The cells used in this assay may be fluorescently or radioactively labelled.
This assay was used to assess the potency of VLA4-directed inhibitory compounds of this invention. 1.
We dissolved BSA-SMCC (Pierce Chemical, Rockford, Ill.; Catalog #77115) in H2O at a concentration of 10 mg/mL. [SEQ ID NO:4]: […](“Cys-Tyr-CS1 peptide”), which we synthesized by conventional solid phase chemistry and purified by HPLC, was dissolved in 10 mM HEPES pH 5, 50 mM NaCl and 0.1 mM EDTA also at a concentration of 10 mg/mL. We then mixed 500 μL of BSA-SMCC, 250 μL of Cys-Tyr-CS1 peptide and 75 μL of 1 mM HEPES pH 7.5 and allowed the conjugation reaction to proceed for 30 minutes. We stopped the reaction by adding 1 μL of beta-mercaptoethanol. Samples were analyzed for cross-linking by SDS-PAGE.
We coated the wells of a Linbro titertek polystyrene 96-well flat bottom plate (Flow Laboratories, Maclean, Va.; catalog #76-231-05) with 100 μL of the above-described BSA-CS1 solution diluted to 1 μg/mL in 0.05 M NaHCO3 (15 mM NaHCO3, 35 mM Na2CO3) pH 9.2. Some wells were not coated with CS1 in order to assess non-specific cell binding (NSB). The plate was then incubated overnight at 4° C.
Following this incubation, the contents of the wells were removed by inverting and blotting the plate. All of the wells were then blocked with 100 μL of 1% BSA in PBS, 0.02% NaN3, for a minimum of one hour at room temperature.
Ramos cells are grown, maintained and labelled in RPMI 1640 culture medium containing 1% BSA. Just prior to running the assay, we added 2′, 7′-bis-(2-carboxyethyl)-5(and -6)carboxyfluorescein acetoxymethyl ester (“BCECF-AM”; Molecular Probes Inc., Eugene, Oregon; catalog #B-1150) to a final concentration of 2 μM to a culture of Ramos cells (4×10^6 cells/mL). We incubated the cells for 20 minutes at 37° C.
Following labelling, the cells were washed twice in assay buffer (24 mM TRIS, 137 mM NaCl, 2.7 mM KCl, pH 7.4, containing 0.1 BSA and 2mM glucose) to remove any cations originating from the culture medium. The cells were then resuspended in assay buffer to 4×10^6 cells/mL and 2 mM MnCl2 was added to upregulate VLA4 on the surface of the cells.
Immediately prior to running the assay, we removed the BSA blocking solution from the 96-well plates and washed the wells with 100 μL of assay buffer. We then added to each well 25 μL of test cell adhesion inhibitory compound at 2×the final concentration and 25 μL of the labelled Ramos cells. […] Each concentration of compound was tested in triplicate. The compound and cells are allowed to incubate for 30 minutes at room temperature.

T1 sequence (P13612 34-1032): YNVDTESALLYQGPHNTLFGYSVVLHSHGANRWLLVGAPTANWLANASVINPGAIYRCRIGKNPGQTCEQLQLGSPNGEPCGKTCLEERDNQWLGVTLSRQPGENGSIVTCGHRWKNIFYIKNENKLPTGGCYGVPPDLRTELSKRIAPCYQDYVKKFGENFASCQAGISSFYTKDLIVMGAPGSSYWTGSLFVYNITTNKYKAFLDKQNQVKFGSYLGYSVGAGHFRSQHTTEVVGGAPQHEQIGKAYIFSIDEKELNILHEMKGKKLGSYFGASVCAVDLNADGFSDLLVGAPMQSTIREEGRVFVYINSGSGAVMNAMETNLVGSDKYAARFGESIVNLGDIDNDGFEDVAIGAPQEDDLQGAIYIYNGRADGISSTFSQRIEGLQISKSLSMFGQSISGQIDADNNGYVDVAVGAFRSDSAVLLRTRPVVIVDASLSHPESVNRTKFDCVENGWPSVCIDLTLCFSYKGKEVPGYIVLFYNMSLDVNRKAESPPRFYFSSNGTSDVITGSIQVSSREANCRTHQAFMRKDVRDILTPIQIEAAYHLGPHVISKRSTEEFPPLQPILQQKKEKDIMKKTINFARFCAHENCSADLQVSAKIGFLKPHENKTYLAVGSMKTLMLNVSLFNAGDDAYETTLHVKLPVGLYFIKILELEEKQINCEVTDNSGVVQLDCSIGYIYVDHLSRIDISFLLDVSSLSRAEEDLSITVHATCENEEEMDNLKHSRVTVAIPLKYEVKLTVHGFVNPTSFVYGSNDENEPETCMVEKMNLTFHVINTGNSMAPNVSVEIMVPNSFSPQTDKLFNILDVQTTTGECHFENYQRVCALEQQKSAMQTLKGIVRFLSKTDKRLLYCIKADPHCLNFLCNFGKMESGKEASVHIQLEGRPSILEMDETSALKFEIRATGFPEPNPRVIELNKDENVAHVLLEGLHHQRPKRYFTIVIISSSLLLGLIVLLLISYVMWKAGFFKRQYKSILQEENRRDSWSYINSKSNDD
T1 sequence (P05556 21-798): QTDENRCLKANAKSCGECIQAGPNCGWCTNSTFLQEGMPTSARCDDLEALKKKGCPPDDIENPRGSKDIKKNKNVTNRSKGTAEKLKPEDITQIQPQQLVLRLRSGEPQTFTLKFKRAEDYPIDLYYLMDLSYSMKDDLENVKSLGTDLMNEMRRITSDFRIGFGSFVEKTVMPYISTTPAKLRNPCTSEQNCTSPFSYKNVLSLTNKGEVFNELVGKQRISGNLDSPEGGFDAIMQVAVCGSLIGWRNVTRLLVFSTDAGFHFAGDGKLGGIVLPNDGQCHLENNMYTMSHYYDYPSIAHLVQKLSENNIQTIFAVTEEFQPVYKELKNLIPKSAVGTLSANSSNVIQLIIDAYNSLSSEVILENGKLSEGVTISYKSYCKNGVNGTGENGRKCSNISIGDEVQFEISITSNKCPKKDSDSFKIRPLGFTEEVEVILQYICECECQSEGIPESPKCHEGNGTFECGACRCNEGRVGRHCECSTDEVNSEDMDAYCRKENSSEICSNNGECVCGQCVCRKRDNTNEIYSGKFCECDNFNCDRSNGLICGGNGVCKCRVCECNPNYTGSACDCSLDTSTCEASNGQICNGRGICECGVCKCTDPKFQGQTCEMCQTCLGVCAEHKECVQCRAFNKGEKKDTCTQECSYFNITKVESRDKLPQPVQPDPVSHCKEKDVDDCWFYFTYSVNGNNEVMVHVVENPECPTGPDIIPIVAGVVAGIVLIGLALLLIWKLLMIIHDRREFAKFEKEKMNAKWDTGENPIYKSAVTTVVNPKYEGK

| SMILES | IC50 |
| --- | --- |
| CC(C)C[C@H](NC(=O)C1CCc2ccccc2N1)C(=O)N[C@@H](CC(=O)O)C(=O)N[C@H](C(=O)N1CCC(c2ccccc2)CC1)C(C)C (stereo partly shown) [Compound 115] | > 10 µM |

Same assay, conditions: Ramos cells, BSA-CS1 coated wells, 2 mM MnCl2, 30 minutes at room temperature; read-out: IC50

| IC50 | SMILES |
| --- | --- |
| > 10 µM | CC(C)C[C@H](NC(=O)C1(N)CCc2ccccc2C1)C(=O)N[C@@H](CC(=O)O)C(=O)N[C@H](C(=O)O)C(C)C (stereo partly shown) [Compound 67] (HELM PEPTIDE1{[NC1(C(=O)[*:2])CCc2ccccc2C1].L.D.V}$$$$V2.0) |
| > 10 µM | CC(C)[C@H](NC(=O)[C@H](CC(=O)O)NC(=O)OC(C)(C)C)C(=O)O [Compound 68] (HELM PEPTIDE1{[CC(C)(C)OC(=O)[*:2]].D.V}$$$$V2.0) |
| > 10 µM | CC(C)C[C@H](NC(=O)c1cc2ccccc2cn1)C(=O)N[C@@H](CC(=O)O)C(=O)N[C@H](C(=O)O)C(C)C [Compound 69] |
| > 10 µM | CC(C)[C@H](NC(=O)[C@H](CC(=O)O)NC(=O)c1cc2ccccc2cn1)C(=O)O [Compound 70] |
| > 10 µM | CC(C)[C@H](NC(=O)[C@H](CC(=O)O)NC(=O)C1Cc2ccccc2CN1)C(=O)O (stereo partly shown) [Compound 71] (HELM PEPTIDE1{[O=C(C1Cc2ccccc2CN1)[*:2]].D.V}$$$$V2.0) |
| > 10 µM | CC(C)C[C@H](NC(=O)C1CCc2ccccc2C1)C(=O)N[C@@H](CC(=O)O)C(=O)N[C@H](C(=O)O)C(C)C (stereo partly shown) [Compound 73] |
| > 10 µM | CC(C)[C@H](NC(=O)[C@H](CC(=O)O)NC(=O)C1CCc2ccccc2C1)C(=O)O (stereo partly shown) [Compound 75] |
| > 10 µM | CC(C)[C@H](NC(=O)[C@H](CC(=O)O)NC(=O)CCCCc1ccccc1)C(=O)O [Compound 76] |
| > 10 µM | CC(C)C[C@H](NC(=O)c1ccccn1)C(=O)N[C@@H](CC(=O)O)C(=O)N[C@H](C(=O)O)C(C)C [Compound 77] |
| > 10 µM | CC(C)[C@H](NC(=O)[C@H](CC(=O)O)NC(=O)c1ccccn1)C(=O)O [Compound 78] |
| > 10 µM | CC(C)C[C@H](NC(=O)C1CCOC1)C(=O)N[C@@H](CC(=O)O)C(=O)N[C@H](C(=O)O)C(C)C (stereo partly shown) [Compound 79] |
| > 10 µM | CC(C)C[C@H](NC(=O)C1CCCO1)C(=O)N[C@@H](CC(=O)O)C(=O)N[C@H](C(=O)O)C(C)C (stereo partly shown) [Compound 80] |
| > 10 µM | CC(C)[C@H](NC(=O)[C@H](CC(=O)O)NC(=O)[C@H](Cc1ccccc1)NC(=O)c1cc2ccccc2cn1)C(=O)O [Compound 81] |
| > 10 µM | O=C(O)C[C@H](NC(=O)c1cc2ccccc2cn1)C(=O)N[C@@H](Cc1ccccc1)C(=O)O [Compound 87] |
| > 10 µM | CC(C)C[C@H](NC(=O)[C@H](CC(=O)O)NC(=O)C1Cc2ccccc2CN1)C(=O)O (stereo partly shown) [Compound 88] (HELM PEPTIDE1{[O=C(C1Cc2ccccc2CN1)[*:2]].D.L}$$$$V2.0) |
| > 10 µM | CC(C)C[C@H](NC(=O)[C@H](CC(=O)O)NC(=O)c1cc2ccccc2cn1)C(=O)O [Compound 89] |
| > 10 µM | CC(C)C[C@H](NC(=O)[C@H](CC(=O)O)NC(=O)[C@H](CC(C)C)NC(=O)C1Cc2ccccc2CN1)C(=O)O (stereo partly shown) [Compound 90] (HELM PEPTIDE1{[O=C(C1Cc2ccccc2CN1)[*:2]].L.D.L}$$$$V2.0) |
| > 10 µM | CC(C)C[C@H](NC(=O)[C@H](CC(=O)O)NC(=O)[C@H](CC(C)C)NC(=O)c1cc2ccccc2cn1)C(=O)O [Compound 91] |
| > 10 µM | CC(C)C[C@H](NC(=O)C1Cc2ccccc2CN1)C(=O)N[C@@H](CC(=O)O)C(=O)N[C@@H](Cc1ccccc1)C(=O)O (stereo partly shown) [Compound 92] (HELM PEPTIDE1{[O=C(C1Cc2ccccc2CN1)[*:2]].L.D.F}$$$$V2.0) |
| > 10 µM | CC(C)C[C@H](NC(=O)c1cc2ccccc2cn1)C(=O)N[C@@H](CC(=O)O)C(=O)N[C@@H](Cc1ccccc1)C(=O)O [Compound 93] |
| > 10 µM | CC(C)C[C@H](NC(=O)c1ccc2ccccc2n1)C(=O)N[C@@H](CC(=O)O)C(=O)N[C@H](C(=O)O)C(C)C [Compound 94] |

| IC50 | SMILES |
| --- | --- |
| > 10 µM | CC(C)C[C@H](NC(=O)CC(c1ccccc1)c1ccccc1)C(=O)N[C@@H](CC(=O)O)C(=O)N[C@H](C(=O)O)C(C)C [Compound 95] |
| > 10 µM | CC(C)[C@H](NC(=O)[C@H](CC(=O)O)NC(=O)[C@H](C)NC(=O)C1Cc2ccccc2CN1)C(=O)O (stereo partly shown) [Compound 96] (HELM PEPTIDE1{[O=C(C1Cc2ccccc2CN1)[*:2]].A.D.V}$$$$V2.0) |
| > 10 µM | CC(C)[C@H](NC(=O)[C@H](CC(=O)O)NC(=O)[C@H](C)NC(=O)c1cc2ccccc2cn1)C(=O)O [Compound 97] |
| > 10 µM | CC(C)C[C@H](NC(=O)CCCCc1ccccc1)C(=O)N[C@@H](CC(=O)O)C(=O)N[C@H](C(=O)O)C(C)C [Compound 98] |
| > 10 µM | CC(C)C[C@H](NC(=O)c1cc2ccccc2[nH]1)C(=O)N[C@@H](CC(=O)O)C(=O)N[C@H](C(=O)O)C(C)C [Compound 99] |
| > 10 µM | CC(C)CNC(=O)[C@H](CC(=O)O)NC(=O)[C@H](CC(C)C)NC(=O)CCc1ccc(O)cc1 [Compound 100] |
| > 10 µM | CC(C)CNC(=O)[C@H](CC(=O)O)NC(=O)[C@H](CC(C)C)NC(=O)c1ccccc1 [Compound 101] |
| > 10 µM | CC(C)CCNC(=O)[C@H](CC(=O)O)NC(=O)[C@H](CC(C)C)NC(=O)CCCCc1ccccc1 [Compound 102] |
| > 10 µM | CC(C)CCNC(=O)[C@H](CC(=O)O)NC(=O)[C@H](CC(C)C)NC(=O)CCc1ccc(O)cc1 [Compound 103] |
| > 10 µM | CC(C)C[C@H](NC(=O)CCCCCc1ccccc1)C(=O)N[C@@H](CC(=O)O)C(=O)N[C@H](C(=O)O)C(C)C [Compound 104] |
| > 10 µM | CC(C)C[C@H](NC(=O)c1ccccc1)C(=O)N[C@@H](CC(=O)O)C(=O)N[C@H](C(=O)O)C(C)C [Compound 105] (HELM PEPTIDE1{[O=C(c1ccccc1)[*:2]].L.D.V}$$$$V2.0) |
| > 10 µM | CC(C)CNC(=O)[C@H](CC(=O)O)NC(=O)[C@H](CC(C)C)NC(=O)CCCCc1ccccc1 [Compound 106] |
| > 10 µM | CC(C)C[C@H](NC(=O)CCC(=O)Nc1ccccc1)C(=O)N[C@@H](CC(=O)O)C(=O)N[C@H](C(=O)O)C(C)C [Compound 107] ({NHPh-Suc}-Leu-Asp-Val-OH) |
| > 10 µM | CC(C)C[C@H](NC(=O)CCC(=O)Nc1ccc(F)cc1)C(=O)N[C@@H](CC(=O)O)C(=O)N[C@H](C(=O)O)C(C)C [Compound 108] |
| > 10 µM | CC(C)C[C@H](NC(=O)CCC(=O)N(C)c1ccccc1)C(=O)N[C@@H](CC(=O)O)C(=O)N[C@H](C(=O)O)C(C)C [Compound 109] |
| > 10 µM | CC(C)CCNC(=O)[C@H](CC(=O)O)NC(=O)[C@H](CC(C)C)NC(=O)C1CCc2ccccc2N1 (stereo partly shown) [Compound 110] |
| > 10 µM | CC(C)CNC(=O)[C@H](CC(=O)O)NC(=O)[C@H](CC(C)C)NC(=O)CCC(=O)Nc1ccccc1 [Compound 111] |
| > 10 µM | CC(C)C[C@@H](C(=O)N[C@@H](CC(=O)O)C(=O)N[C@H](C(=O)O)C(C)C)N(C)C(=O)c1ccccc1 [Compound 113] (HELM PEPTIDE1{[O=C(c1ccccc1)[*:2]].[meL].D.V}$$$$V2.0) |
| > 10 µM | CCCCCCNC(=O)[C@H](CC(=O)O)NC(=O)[C@H](CC(C)C)NC(=O)CCc1ccc(O)cc1 [Compound 116] |
| > 10 µM | CC(C)C[C@H](NC(=O)CCc1ccc(O)cc1)C(=O)N[C@@H](CC(=O)O)C(=O)N(CC(C)C)CC(C)C [Compound 117] |
| > 10 µM | CCCCCCNC(=O)[C@@H](NC(=O)[C@H](CC(=O)O)NC(=O)[C@H](CC(C)C)NC(=O)CCc1ccc(O)cc1)C(C)C [Compound 119] |
